Patent US20120202837A1, “SPIROCYCLIC PIPERIDINE DERIVATIVES USEFUL AS RENIN INHIBITORS” (priority 2009, published 2012)

Experiments:
Renin in human plasma = molecular target: T1, Renin in human plasma (Homo sapiens, UniProt P00797); test: Inhibition of renin in human plasma; type: biochemical; conditions: human EDTA plasma, recombinant renin added at 1 nM, 6 μM substrate, 37° C., 1 hour
T1 construct: purchased Proteos; host or cells: added to human EDTA-collected plasma
T1 sequence (P00797 67-406): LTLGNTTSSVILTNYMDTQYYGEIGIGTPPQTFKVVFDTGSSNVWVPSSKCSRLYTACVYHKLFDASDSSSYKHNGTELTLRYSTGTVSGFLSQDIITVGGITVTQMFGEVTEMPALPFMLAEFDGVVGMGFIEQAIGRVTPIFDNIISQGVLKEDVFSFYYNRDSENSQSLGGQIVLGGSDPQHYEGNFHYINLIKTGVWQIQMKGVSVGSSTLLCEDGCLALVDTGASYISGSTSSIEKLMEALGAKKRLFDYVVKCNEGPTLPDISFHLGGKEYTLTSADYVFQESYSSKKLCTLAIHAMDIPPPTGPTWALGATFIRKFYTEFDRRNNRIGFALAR
Method: Human EDTA-collected plasma is rapidly thawed in warm water and centrifuged at 2900 g for 15 minutes at 4° C. The supernatant is collected and recombinant renin (Proteos) is added at a final concentration of 1 nM. The plasma is transferred to a Costar black 384 well plate (#3573). Renin inhibitors are added from a 17.5 fold concentrated DMSO solution and pre-incubated at 37° C. for 10 minutes. The internally-quench fluorescent peptide QX1520™-Lys-His-Pro-Phe-His-Leu-Val-Ile-His-Lys (5-FAM) (Anaspec) is diluted in 3M Tris pH 7.2, 200 mM EDTA and added to the plasma. The final concentrations are: 6 μM substrate, 342 mM Tris, 23 mM EDTA. The plate is incubated at 37° C. for 1 hour. The plate is read in a SpectraMax Gemini EM reader set at an excitation wavelength of 490 nm and an emission wavelength of 520 nm at times 0 and 1 hour. Background fluorescence at t=0 is subtracted from the measurement at t=1 hour. Inhibitory activity of the compounds is expressed as IC50.

Human recombinant renin = molecular target: T2, Human recombinant renin (Homo sapiens, UniProt P00797); test: Inhibition of human recombinant renin (buffer assay); type: biochemical; conditions: buffer: 50 mM MOPS pH 7.4, 100 pM renin, 6 μM fluorescent peptide, 37° C., 3 hours
T2 construct: purchased Proteos
T2 sequence (P00797 67-406): T1 sequence (P00797 67-406)
Method: Human recombinant renin (Proteos) in 50 mM MOPS pH 7.4, 100 mM NaCl, 0.002% Tween 20 at a final concentration of 100 pM is incubated with inhibitors from a 50 fold concentrated DMSO solution and 6 μM of an internally-quench fluorescent peptide: DNP-Lys-His-Pro-Phe-His-Leu-Val-Ile-His-D,L-Amp (SEQ ID NO: 1); Paschalidou K. et al., Biochem J, 2004, 382, 1031). The reactions take place in a Costar 384 well black plate (#3573) at 37° C. for 3 hours. Fluorescence is measured at times 0 and 3 hours with a SpectraMax Gemini EM reader set at an excitation wavelength of 328 nm and at an emission wavelength of 388 nm. Background fluorescence at t=0 is subtracted from the measurement at t=3 hours. Inhibitory activity of the compounds is expressed as IC50.

Row | SMILES | IC50 (Renin in human plasma) [pM] | IC50 (Human recombinant renin) [pM]
1 | COCCCc1ccccc1-c1ccc([C@@H]2CNCC[C@]23OCc2cn(C)c(=O)cc23)c(C)c1 (racemic) [Example 5, rac-(1R,3′S)-3′-[2′-(3-Methoxypropyl)-3-methyl-4-biphenylyl]-5-methyl-3,5-dihydro-6H-spiro[furo[3,4-c]pyridine-1,4′-piperidin]-6-one] | 18000 | 1600
2 | CC(=O)NCCc1ccccc1-c1ccc([C@@H]2CNCC[C@]23OCc2cc(F)c(F)cc23)c(C)c1 (racemic) [Example 4, rac-N-(2-{4′-[(1R,3′S)-5,6-Difluoro-3H-spiro[2-benzofuran-1,4′-piperidin]-3′-yl]-3′-methyl-2-biphenylyl}ethyl)acetamide] | 1400 | 200
3 | CC(=O)NCCc1ccccc1-c1onc([C@H]2CNCC[C@@]23OCc2cc(F)c(F)cc23)c1Br [Example 13, N-[2-(2-(4-Bromo-3-[(1R,3′R)-5,6-difluoro-3H-spiro[2-benzofuran-1,4′-piperidin]-3′-yl]-5-isoxazolyl)phenyl)ethyl]acetamide] | 1000 | 260
4 | Cc1cc(-c2ccccc2CCNC(=O)CO)ccc1[C@H]1CNCC[C@@]12OC(=O)c1cc(F)c(F)cc12 [Example 11, N-(2-{4′-[(1R,3′S)-5,6-Difluoro-3-oxo-3H-spiro[2-benzofuran-1,4′-piperidin]-3′-yl]-3′-methyl-2-biphenylyl}ethyl)-2-hydroxyacetamide] | 820 | 660
